Reference: US4031198A, “Technetium-labeled complexes, production and use thereof” (priority 1974, dated 1977)

Tests used:
[1] = Partition coefficient of Tc complexes, water/n-octyl alcohol, by radioactivity; type: physicochemical; conditions: water/n-octanol
From the text: These partition coefficient studies involve plotting pH vs. The natural logarithm of the ratio of the activity in water to the activity in normal octyl alcohol, hereinafter referred to as ln(aw /ao). In the pH range of 5 to 8, the complex should not be so lipophilic as to have an ln(aw /ao) of less than -2, particularly at the higher pH levels. On the other hand, the hydrophilicity must also be kept within limits, as the following table illustrates:
Acid, salt, hydroxyl, amino or other polar groups present on the complexing agent molecule can provide a water solubilizing or hydrophilic effect which is reflected in higher ln aw /ao values, but due regard must be accorded to the variety of fluids, organs and tissues in mammals, each of which can have a distinctively acidic or basic environment, ranging from, for example, the low pH of the stomach to the relatively high pH of the intestines. The blood is on the mildly alkaline side at pH = 7.4. Thus, partition coefficient data on the Tc-complexes of this invention are preferably obtained throughout the pH range of 5 to 8. The use of partition coefficient data in pharmacology is well-established; see Andrejus Korolkvas, Essentials of Molecular Pharmacology, Wiley (interscience), N.Y., N.Y., 1970. […] Natural logarithms of partition coefficients are tabulated in several of the Examples which follow.
Partition coefficients for the Tc-DHT complex of this Example were determined with a water/n-octyl alcohol system over the pH range of 5 to 8 using radioactive measurements to determine the amount of Tc-99m in each phase. The expression aw /ao is the ratio of the activity in water to the activity in n-octyl alcohol. For comparison, partition coefficients over the same pH range were determined for sodium 99m pertechnetate and cysteine (HS-CH2 CH(NH2)COOH).
The aw /ao ratios for the 99mTc-4-mercaptobutanol complex were determined as in Example 1, except that two independently determined ln(aw /ao) vs. pH plots were averaged.
The aw /ao ratios for the Tc 99m complex of this Example were determined as in Example 1. The results (ln data accurate to ± 0.5) were as follows:
A series of Tc-99m complexes were made by reducing NaTcO4 and reacting the reduced Tc-99m species with the following aliphatic mercapto alcohols:
Partition coefficients were determined as in Examples 1, 3, and 5 in Tables II, III, and VI.

[2] = In vivo study of liver or gall-bladder specificity

SMILES	Ln of partition coefficient, ln(aw /ao) ([1]; pH 5)	Ln of partition coefficient, ln(aw /ao) ([1]; pH 6)	Ln of partition coefficient, ln(aw /ao) ([1]; pH 7)	Ln of partition coefficient, ln(aw /ao) ([1]; pH 8)	logD ([1]; pH 5)	logD ([1]; pH 6)	logD ([1]; pH 7)	logD ([1]; pH 8)	liver or gall-bladder specificity [2]
OCCCS [3-mercapto propanol]	-0.5	-0.4	-0.3	-0.2	–	–	–	–	–
OCCCCCS [5-mercapto pentanol]	–	–	–	–	-0.2	-0.1	-0.1	0	–
[Na+].[O]=[99Tc](=[O])(=[O])[O-] [Na99mTcO4, sodium 99m pertechnetate, reference compound]	+3.2	+3.3	+3.5	+3.6	–	–	–	–	insufficient liver or gall-bladder specificity

Now from value to compound, other results behind:

Ln of partition coefficient, ln(aw /ao) ([1]; pH 5)	Ln of partition coefficient, ln(aw /ao) ([1]; pH 6)	Ln of partition coefficient, ln(aw /ao) ([1]; pH 7)	Ln of partition coefficient, ln(aw /ao) ([1]; pH 8)	logD ([1]; pH 5)	logD ([1]; pH 6)	logD ([1]; pH 7)	logD ([1]; pH 8)	SMILES	liver or gall-bladder specificity [2]
-0.9	-0.8	-0.7	-0.6	–	–	–	–	OCCS [2-mercapto-ethanol]	–
–	–	–	–	1	1.1	1.2	1.3	CC(C)(O)CCS [4-mercapto-2-methyl-2-butanol]	–
